# Reference: patent US20130209582A1, “HYDROGEN IODIDE-[…] FOOD AND HYDROGEN IODIDE-CONTAINING DRUG, AND METHOD FOR PRODUCING SAME” (priority 2010, published 2013)
# Assay: Gastrointestinal absorption and retention in the thyroid gland after taking hydrogen iodide into the body
# Type: in vivo
# Conditions: through gastrointestinal absorption
# Protocol: When taking hydrogen iodide into the body, the hydrogen iodide reaches to the thyroid gland within 30 minutes through gastrointestinal absorption. Since the hydrogen iodide is retained in the thyroid gland for about two hours, it is preferable to take the health food or the pharmaceutical product every two hours in a serious case. Moreover, it is preferable to take them not in large quantities at one time, but in small quantities frequently on an empty stomach.
smiles,measurement,value
I [hydrogen iodide],time to reach the thyroid gland,≤ 30 min
